As a reminder, the IC50 is the midpoint of a concentration-inhibition curve. Usually % Inhibition stands for how much of the control response was suppressed. A low value points to little suppression. As usually defined, the inhibition is the share of the control response that was lost under treatment. As usually defined, the melting point is the temperature of the solid-liquid transition.

Data on 4 compounds can be found in paper PMC9866191, “Novel 9-Benzylaminoacridine Derivatives as Dual Inhibitors of Phosphodiesterase 5 and Topoisomerase II for the Treatment of Colon Cancer” (Molecules, 2023).

The test system of one data set is PDE5. Set-up: method as in PMID 29656464. Particulars: Figure 1; cited from earlier work.
For another data set, the system named is CCD-966SK. Briefly: MTT cell proliferation assay, CCD-966SK. Particulars: CCD966SK skin fibroblast; 10 µM; 72 h MTT. Background: Tetrazolium assays rely on reduction of a dye to a coloured formazan, in cell work by metabolically active cells.
In another data set the target is T1, PDE5A (Homo sapiens, UniProt O76074).
T1 construct: purchased BPS Bioscience, San Diego, CA, USA
Briefly: Phosphodiesterase 5 HTRF cGMP assay. The format is biochemical. The protocol:
All the synthesized acridine derivatives were tested for their in vitro ability to inhibit PDE5A at a screening dose of 10 µM.
The enzyme activities of phosphodiesterase 5 (PDE5) were measured using an HTRF cGMP assay kit (Cisbio, Codolet, France). […] Afterward, the HTRF reagent (cGMP-d2 and anti-cGMP-cryptate) was added for 1 h at 25 °C, and PDE activity was assayed on an HTRF reader (Tecan Infinite F200 Pro).
On the technique in general: TR-FRET usually uses a lanthanide donor and a delayed reading to cut background.

The next data set concerns HCT-116. The data set can be described thus: MTT cell proliferation assay, HCT-116. As to conditions: for % Inhibition at 10 µM: 72 h MTT, means ± SD.

On to `c1ccc(CNc2ncnc3sc4c(c23)CCCCC4)cc1` [B], for which the IC50 in the data set on PDE5 is 190 nM.

Regarding `c1ccc(CNc2ncnc3sc4c(c23)CCC4)cc1` [C], the IC50 in the data set with PDE5 was 420 nM.

`c1csc(CNc2c3ccccc3nc3ccccc23)c1` [Compound 15, Acridin-9-yl-thiophen-2-ylmethyl-amine] came in with a melting point of 121 to 123 °C. Besides, in the data set on CCD-966SK, the “% Inhibition at 10 µM” value is recorded as 11.54 ± 0.04%. For the same compound, at PDE5A (means ± S.D. (n = 4), read-out: PDE5 IC50), the IC50 worked out at 6430 ± 1300 nM. In addition, the inhibition at 10 µM on PDE5A (read-out: PDE5 % Inhibition at 10 μM) worked out at 58.4 ± 1.47%. For the same compound, the “% Inhibition at 10 µM” value with HCT-116 is listed as 39.65 ± 4.72%.

With `N.N.[Cl][Pt][Cl]` [cisplatin, reference compound], the “% Inhibition at 10 µM” value in the data set with CCD-966SK came out at 38.73 ± 5.19%; with HCT-116, 83.00 ± 0.38%. For the same compound, in the data set on HCT-116 (read-out: IC50 μM, 72 h MTT, means ± SD, three experiments), the IC50 is 3.62 ± 0.19 µM.
